Reference: US20150336889A1, “INDOLE DERIVATIVES, PHARMACEUTICAL COMPOSITIONS CONTAINING SUCH INDOLES AND THEIR USE AS DNA METHYLATION MODULATORS” (IKERCHEM, S.L., priority 2012, published 2015)

Legend:
MCF-7 = assay: Cancer cell growth inhibition, MCF-7; format: cell-based; settings: Homo sapiens, MCF7; Breast, MCF-7, cell viability, 72 h
Experimental: (§1) Cell culture-based assays were used to evaluate the ability of compounds of the invention to inhibit cancer cell growth inhibition.
(§2) Cells were obtained from the American Type Culture Collection (ATCC) and European Collection of Cell Cultures (ECACC).
(§3) Cells were thawed in their appropriate media plus supplements (see table below). Cells were passaged at confluence by washing once in HBSS cation-free followed by a 3 minutes incubation with trypsin ([0.5 μg/ml]/EDTA [0.2 μg/ml]) (Gibco-BRL, 15400054) solution in HBSS at 37° C. (except non-adherent cell lines), and transferred to their appropriate media plus supplements. Prior to seeding at defined cell concentration, cells were recovered in medium, centrifuged and taken up in medium, and counted.
(§4) Cells were plated at 3000/5000/10000 cells/well in 100 μl media in tissue culture 96 well plates (Cultek). After 24 h, media was supplemented by 100 μl/well of diluted IPDNs at 100 μM.
(§5) The Hexosaminidase assay was used for the adherent cell lines, whereas the AlamarBlue® assay was used for the non-adherent cell lines.
(§6) Dose-response curves were generated by serial dilutions (1:1) of the compounds. […] Reagent blanks, containing media plus colorimetric reagent without cells were run on each plate. Blank values were subtracted from test values and were routinely 5-10% of uninhibited control values. Plates were incubated 72 h, and living cell number was determined by AlamarBlue® and Hexosaminidase test. The advantages of using those assays are that both can be done in the same microwell plate. AlamarBlue® assay: plates were incubated 72 h and living cell number was determined by AlamarBlue (Biosource DAL1100). After 4 h incubation at 37° C., relative fluorescent intensity, which correlates with the number of living cells, was read in a Cytofluor plate reader (Millipore) at 535/590 nm (Excitation/emission). The hexosaminidase activity was measured according to the following protocol: the media was removed and cells were washed once with PBS.
(§7) Data analysis was done by calculating the percentage of cell viability normalized in front of negative control values, which were considered as a 100%. The curve was adjusted using a sigmoidal dose-response (variable slope) equation and EC50 values were obtained from the equation
(§8) where, X is the logarithm of concentration. Y is the response. Bottom is the Y value at the bottom plateau Top is the Y value at the top plateau LogEC50 is the X value when the response is halfway between Bottom and Top. With different kinds of variables, this variable is sometimes called ED50 (effective dose, 50%), or IC50 (inhibitory concentration, 50%, used when the curve goes downhill).

HeLa = assay: Cancer cell growth inhibition, HeLa; format: cell-based; settings: Homo sapiens, Cervical, cell viability, 72 h
Experimental: as §1, §2, §3, §4, §5
as §6, with “PBS. […]” for “PBS.”

A-431 = assay: Cancer cell growth inhibition, A-431; format: cell-based; settings: Homo sapiens; Epidermoid, A-431, cell viability, 72 h
Experimental: as §1, §2, §3, §4, §5, §6, §7, §8

SK-HEP-1 = assay: Cancer cell growth inhibition, SK-HEP-1; format: cell-based; settings: Homo sapiens, SK-HEP1; Liver, SK-HEP-1, cell viability, 72 h
Experimental: as §1, §2, §3, §4, §5
as §6, with “PBS. […]” for “PBS.”

LnCaP = assay: Cancer cell growth inhibition, LnCaP; format: cell-based; settings: Homo sapiens, Prostate, cell viability, 72 h
Experimental: as §1, §2, §3, §4, §5, §6, §7, §8

143B = assay: Cancer cell growth inhibition, 143B; format: cell-based; settings: Homo sapiens, Osteosarcoma, cell viability, 72 h
Experimental: as §1, §2, §3, §4, §5, §6, §7, §8

A-549 = assay: Cancer cell growth inhibition, A-549; format: cell-based; settings: Homo sapiens, A549; Lung, A-549, cell viability, 72 h
Experimental: as §1, §2, §3, §4, §5, §6, §7, §8

LoVo = assay: Cancer cell growth inhibition, LoVo; format: cell-based; settings: Homo sapiens, Colorectal, cell viability, 72 h
Experimental: as §1, §2, §3, §4, §5
as §6, with “PBS. […]” for “PBS.”

MiaPaCa-2 = assay: Cancer cell growth inhibition, MiaPaCa-2; format: cell-based; settings: Homo sapiens, MIA PaCa-2; Pancreatic, MiaPaCa-2, cell viability, 72 h
Experimental: as §1, §2, §3, §4, §5, §6, §7, §8

Jurkat = assay: Cancer cell growth inhibition, Jurkat; format: cell-based; settings: Homo sapiens, Hematologic, cell viability, 72 h
Experimental: as §1, §2, §3, §4, §5, §6, §7, §8

T47D = assay: Cancer cell growth inhibition, T47D; format: cell-based; settings: Homo sapiens, Breast, cell viability, 72 h
Experimental: as §1, §2, §3, §4, §5, §6, §7, §8

U-87MG = assay: Cancer cell growth inhibition, U-87MG; format: cell-based; settings: Homo sapiens, Brain, cell viability, 72 h
Experimental: as §1, §2, §3, §4, §5, §6, §7, §8

NCI-H1650 = assay: Cancer cell growth inhibition, NCI-H1650; format: cell-based; settings: Homo sapiens; Lung, NCI-H1650, cell viability, 72 h
Experimental: as §1, §2, §3, §4, §5
as §6, with “PBS. […]” for “PBS.”

CCFR-CEM = assay: Cancer cell growth inhibition, CCFR-CEM; format: cell-based; settings: Hematologic, cell viability, 72 h
Experimental: as §1, §2, §3, §4, §5, §6, §7, §8

Daoy = assay: Cancer cell growth inhibition, Daoy; format: cell-based; settings: Homo sapiens, Brain, cell viability, 72 h
Experimental: as §1, §2, §3, §4, §5, §6, §7, §8

OVCAR-3 = assay: Cancer cell growth inhibition, OVCAR-3; format: cell-based; settings: Homo sapiens; Ovarian, OVCAR-3, cell viability, 72 h
Experimental: as §1, §2
as §3, with “counted. […]” for “counted.”
(§9) Dose-response curves were generated by serial dilutions (1:1) of the compounds. […] Plates were incubated 72 h, and living cell number was determined by AlamarBlue® and Hexosaminidase test. […] AlamarBlue® assay: plates were incubated 72 h and living cell number was determined by AlamarBlue (Biosource DAL1100). After 4 h incubation at 37° C., relative fluorescent intensity, which correlates with the number of living cells, was read in a Cytofluor plate reader (Millipore) at 535/590 nm (Excitation/emission). The hexosaminidase activity was measured according to the following protocol: the media was removed and cells were washed once with PBS. […]

DU-145 = assay: Cancer cell growth inhibition, DU-145; format: cell-based; settings: Homo sapiens; Prostate, DU-145, cell viability, 72 h
Experimental: as §1, §2, §3, §4, §5
as §6, with “PBS. […]” for “PBS.”

K562 = assay: Cancer cell growth inhibition, K562; format: cell-based; settings: Homo sapiens; Hematologic, K562, cell viability, 72 h
Experimental: as §1, §2, §3, §4, §5
as §6, with “PBS. […]” for “PBS.”

HepG2 = assay: Cancer cell growth inhibition, HepG2; format: cell-based; settings: Homo sapiens; Liver, HepG2, cell viability, 72 h
Experimental: as §1, §2
as §3, with “counted. […]” for “counted.”
as §9

SK-OV-3 = assay: Cancer cell growth inhibition, SK-OV-3; format: cell-based; settings: Homo sapiens; Ovarian, SK-OV-3, cell viability, 72 h
Experimental: as §1, §2, §3, §4, §5
as §6, with “PBS. […]” for “PBS.”

SK-MEL-28 = assay: Cancer cell growth inhibition, SK-MEL-28; format: cell-based; settings: Homo sapiens; Melanoma, SK-MEL-28, cell viability, 72 h
Experimental: as §1, §2, §3, §4, §5
as §6, with “PBS. […]” for “PBS.”

Human DNMT1 = target: T1, Human DNMT1 (Homo sapiens, UniProt P26358); assay: DNMT1 enzymatic activity inhibition, radioisotope-based 3H-SAM filter binding assay; format: biochemical; settings: 1 μM SAM, 25 nM DNMT1, 0.005 mg/ml Poly(dI-dC), 30° C. 1 hour, 10-dose
T1 construct: a-a 2-1632, with N-terminal GST tag; GST (N)
Experimental: The inhibition of the enzymatic activity of DNMT1 was tested using low volume radioisotope-based assay which uses tritium-labeled AdoMet (^3H-SAM) as a methyl donor. Inhibitors diluted in DMSO were added by using acoustic technology (Echo550, Labcyte Inc. Sunnyvale, Calif.) into enzyme/substrate mixture in nano-liter range. The reaction was initiated by the addition of ^3H-SAM, and incubated at 30° C. for 1 hour. Total final methylations on the substrate poly(dI-dC) were detected by a filter binding approach. Data analysis was performed using GraphPad Prism software (La Jolla, Calif.) for IC50 curve fits.

T1 sequence (P26358 2-1632 isoform P26358-2): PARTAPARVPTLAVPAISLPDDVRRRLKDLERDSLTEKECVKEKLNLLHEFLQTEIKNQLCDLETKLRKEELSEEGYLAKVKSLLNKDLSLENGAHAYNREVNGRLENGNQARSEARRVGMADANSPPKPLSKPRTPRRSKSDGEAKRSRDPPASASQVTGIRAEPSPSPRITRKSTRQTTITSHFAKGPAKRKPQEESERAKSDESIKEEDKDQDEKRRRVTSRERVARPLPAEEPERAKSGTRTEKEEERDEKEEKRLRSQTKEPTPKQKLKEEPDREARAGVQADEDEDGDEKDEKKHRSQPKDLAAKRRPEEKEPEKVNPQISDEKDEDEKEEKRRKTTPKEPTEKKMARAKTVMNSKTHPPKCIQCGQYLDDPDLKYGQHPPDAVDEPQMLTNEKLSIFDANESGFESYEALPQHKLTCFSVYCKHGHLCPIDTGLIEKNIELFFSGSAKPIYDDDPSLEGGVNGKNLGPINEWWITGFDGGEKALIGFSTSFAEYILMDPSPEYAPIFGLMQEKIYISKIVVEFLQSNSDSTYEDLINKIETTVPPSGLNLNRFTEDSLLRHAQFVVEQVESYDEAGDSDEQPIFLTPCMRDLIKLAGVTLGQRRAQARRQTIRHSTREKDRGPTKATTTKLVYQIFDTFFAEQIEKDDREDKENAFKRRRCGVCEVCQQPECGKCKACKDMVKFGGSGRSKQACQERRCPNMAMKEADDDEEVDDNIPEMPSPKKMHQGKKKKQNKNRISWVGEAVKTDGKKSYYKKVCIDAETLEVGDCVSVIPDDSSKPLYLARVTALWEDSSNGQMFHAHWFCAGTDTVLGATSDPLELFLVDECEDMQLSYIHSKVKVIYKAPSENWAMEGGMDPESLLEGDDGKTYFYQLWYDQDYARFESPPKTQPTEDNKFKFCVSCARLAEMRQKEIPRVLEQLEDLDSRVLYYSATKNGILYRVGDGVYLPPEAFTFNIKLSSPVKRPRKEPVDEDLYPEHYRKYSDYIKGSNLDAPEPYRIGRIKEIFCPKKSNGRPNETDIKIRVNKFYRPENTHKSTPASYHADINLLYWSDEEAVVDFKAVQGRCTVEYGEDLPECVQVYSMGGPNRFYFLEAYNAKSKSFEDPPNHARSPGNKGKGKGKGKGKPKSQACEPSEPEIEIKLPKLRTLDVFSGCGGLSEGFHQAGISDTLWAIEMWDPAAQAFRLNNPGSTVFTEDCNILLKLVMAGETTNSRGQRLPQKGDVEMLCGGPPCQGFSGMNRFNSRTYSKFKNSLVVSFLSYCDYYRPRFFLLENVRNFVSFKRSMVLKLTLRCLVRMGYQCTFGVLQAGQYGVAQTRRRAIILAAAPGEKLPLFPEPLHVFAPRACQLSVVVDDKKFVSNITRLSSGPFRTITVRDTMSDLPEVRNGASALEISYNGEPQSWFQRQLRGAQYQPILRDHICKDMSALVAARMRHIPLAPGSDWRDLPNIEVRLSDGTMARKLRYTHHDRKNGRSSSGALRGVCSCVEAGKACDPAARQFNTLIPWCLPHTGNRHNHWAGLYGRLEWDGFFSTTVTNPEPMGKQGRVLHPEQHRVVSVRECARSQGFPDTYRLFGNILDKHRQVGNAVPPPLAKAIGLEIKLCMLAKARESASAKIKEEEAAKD

| Structure (SMILES) | EC50 (MCF-7) | EC50 (HeLa) | EC50 (A-431) | EC50 (SK-HEP-1) | EC50 (LnCaP) | EC50 (143B) | EC50 (A-549) | EC50 (LoVo) | EC50 (MiaPaCa-2) | EC50 (Jurkat) | EC50 (T47D) | EC50 (U-87MG) | EC50 (NCI-H1650) | EC50 (CCFR-CEM) | EC50 (Daoy) | EC50 (OVCAR-3) | EC50 (DU-145) | EC50 (K562) | EC50 (HepG2) | EC50 (SK-OV-3) | further results |
| --- | --- | --- | --- | --- | --- | --- | --- | --- | --- | --- | --- | --- | --- | --- | --- | --- | --- | --- | --- | --- | --- |
| COc1cc(OC)c2c(-c3ccc(O)cc3)cn(CC(=O)c3ccc(O)cc3)c2c1 [Example 6, 1-(4-hydroxyphenyl)-2-[3-(4-hydroxyphenyl)-4,6-dimethoxy-1H-indol-1-yl]ethanone] | 6.2 µM | 6.9 µM | 11 µM | 31 µM | 4.8 µM | 19 µM | 11 µM | 12 µM | 5.5 µM | 1.9 µM | 11 µM | 13 µM | 11 µM | 6.3 µM | 4.2 µM | 7.2 µM | 16 µM | 13 µM | 19 µM | 4.1 µM | EC50 (SK-MEL-28): 4.8 µM; IC50 (Human DNMT1): 27.9 µM |
| O=C(Cn1cc(-c2ccc(O)cc2)c2c(F)cc(F)cc21)c1ccc(O)cc1 [Example 16, 2-[4,6-difluoro-3-(4-hydroxyphenyl)-1H-indol-1-yl]-1-(4-hydroxyphenyl) ethanone] | 41 µM | 68 µM | 66 µM | 35 µM | 43 µM | 31 µM | 39 µM | 50 µM | 61 µM | 30 µM | 31 µM | 95 µM | 76 µM | 57 µM | 50 µM | 47 µM | 65 µM | 51 µM | 44 µM | 44 µM | EC50 (SK-MEL-28): 59 µM; IC50 (Human DNMT1): 22.5 µM |
